This is an account of results in ChEMBL document CHEMBL5465560, “Selectivity Literature for EUbOPEN Chemogenomic Library” (2024).

Assay [1] has as its system Hepatocyte growth factor receptor (Homo sapiens), P08581 [M1250T]. Nature of the assay: (§1) Selectivity interaction (KinomeScan (DiscoverX)) EUB0000666a MET. As to conditions: at 10 µM.
Assay [2] deals with Hepatocyte growth factor receptor (Homo sapiens), P08581 [Y1235D]. Described as §1. As to conditions: at 10 µM.
The target of assay [3] is T1, Mitogen-activated protein kinase kinase kinase 6 (Homo sapiens) (UniProt O95382).
T1 sequence (whole entry): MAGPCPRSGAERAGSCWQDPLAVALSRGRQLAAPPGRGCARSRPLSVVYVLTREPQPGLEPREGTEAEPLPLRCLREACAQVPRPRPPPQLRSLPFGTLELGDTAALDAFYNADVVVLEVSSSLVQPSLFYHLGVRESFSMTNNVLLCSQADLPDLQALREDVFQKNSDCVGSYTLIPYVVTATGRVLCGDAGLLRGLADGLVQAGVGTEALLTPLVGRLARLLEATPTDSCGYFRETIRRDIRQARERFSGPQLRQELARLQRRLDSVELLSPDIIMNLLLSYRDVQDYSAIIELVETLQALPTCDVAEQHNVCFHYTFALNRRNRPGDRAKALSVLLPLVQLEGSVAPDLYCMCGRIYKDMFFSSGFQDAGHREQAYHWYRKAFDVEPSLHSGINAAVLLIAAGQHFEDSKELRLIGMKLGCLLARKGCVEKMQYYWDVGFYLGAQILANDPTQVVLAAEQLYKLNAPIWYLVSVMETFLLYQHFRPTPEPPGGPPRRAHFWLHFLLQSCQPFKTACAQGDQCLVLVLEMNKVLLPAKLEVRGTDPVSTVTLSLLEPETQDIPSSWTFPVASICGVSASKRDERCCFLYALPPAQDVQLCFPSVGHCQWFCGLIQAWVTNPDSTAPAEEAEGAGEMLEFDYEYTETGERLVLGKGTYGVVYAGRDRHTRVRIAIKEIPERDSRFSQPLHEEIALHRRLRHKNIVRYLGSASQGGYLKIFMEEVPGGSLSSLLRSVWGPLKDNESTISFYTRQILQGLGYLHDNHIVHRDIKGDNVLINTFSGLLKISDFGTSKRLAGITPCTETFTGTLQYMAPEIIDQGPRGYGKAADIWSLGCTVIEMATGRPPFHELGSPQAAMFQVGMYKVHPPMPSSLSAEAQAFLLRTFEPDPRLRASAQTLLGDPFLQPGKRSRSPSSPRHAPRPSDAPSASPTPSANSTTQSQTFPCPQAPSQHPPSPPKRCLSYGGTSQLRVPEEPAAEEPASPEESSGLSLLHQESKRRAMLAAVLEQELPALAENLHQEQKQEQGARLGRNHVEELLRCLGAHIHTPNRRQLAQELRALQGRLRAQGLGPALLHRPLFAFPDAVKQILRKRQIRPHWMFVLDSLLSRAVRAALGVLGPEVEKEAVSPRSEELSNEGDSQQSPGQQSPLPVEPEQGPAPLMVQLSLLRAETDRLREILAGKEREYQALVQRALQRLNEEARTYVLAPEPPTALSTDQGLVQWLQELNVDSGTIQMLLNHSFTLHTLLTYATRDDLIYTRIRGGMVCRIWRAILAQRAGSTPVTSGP
Nature of the assay: Selectivity interaction (ActivX KiNativ screen (kinase selectivity in THP-1 cell lysates)) EUB0000639a MAP3K6. The format is subcellular. As to conditions: lysate, at 0.01 µM.

Assay [4] has as its target T2, Phosphatidylinositol 3-kinase C2 domain-containing subunit gamma (Homo sapiens) (UniProt O75747).
T2 sequence (whole entry): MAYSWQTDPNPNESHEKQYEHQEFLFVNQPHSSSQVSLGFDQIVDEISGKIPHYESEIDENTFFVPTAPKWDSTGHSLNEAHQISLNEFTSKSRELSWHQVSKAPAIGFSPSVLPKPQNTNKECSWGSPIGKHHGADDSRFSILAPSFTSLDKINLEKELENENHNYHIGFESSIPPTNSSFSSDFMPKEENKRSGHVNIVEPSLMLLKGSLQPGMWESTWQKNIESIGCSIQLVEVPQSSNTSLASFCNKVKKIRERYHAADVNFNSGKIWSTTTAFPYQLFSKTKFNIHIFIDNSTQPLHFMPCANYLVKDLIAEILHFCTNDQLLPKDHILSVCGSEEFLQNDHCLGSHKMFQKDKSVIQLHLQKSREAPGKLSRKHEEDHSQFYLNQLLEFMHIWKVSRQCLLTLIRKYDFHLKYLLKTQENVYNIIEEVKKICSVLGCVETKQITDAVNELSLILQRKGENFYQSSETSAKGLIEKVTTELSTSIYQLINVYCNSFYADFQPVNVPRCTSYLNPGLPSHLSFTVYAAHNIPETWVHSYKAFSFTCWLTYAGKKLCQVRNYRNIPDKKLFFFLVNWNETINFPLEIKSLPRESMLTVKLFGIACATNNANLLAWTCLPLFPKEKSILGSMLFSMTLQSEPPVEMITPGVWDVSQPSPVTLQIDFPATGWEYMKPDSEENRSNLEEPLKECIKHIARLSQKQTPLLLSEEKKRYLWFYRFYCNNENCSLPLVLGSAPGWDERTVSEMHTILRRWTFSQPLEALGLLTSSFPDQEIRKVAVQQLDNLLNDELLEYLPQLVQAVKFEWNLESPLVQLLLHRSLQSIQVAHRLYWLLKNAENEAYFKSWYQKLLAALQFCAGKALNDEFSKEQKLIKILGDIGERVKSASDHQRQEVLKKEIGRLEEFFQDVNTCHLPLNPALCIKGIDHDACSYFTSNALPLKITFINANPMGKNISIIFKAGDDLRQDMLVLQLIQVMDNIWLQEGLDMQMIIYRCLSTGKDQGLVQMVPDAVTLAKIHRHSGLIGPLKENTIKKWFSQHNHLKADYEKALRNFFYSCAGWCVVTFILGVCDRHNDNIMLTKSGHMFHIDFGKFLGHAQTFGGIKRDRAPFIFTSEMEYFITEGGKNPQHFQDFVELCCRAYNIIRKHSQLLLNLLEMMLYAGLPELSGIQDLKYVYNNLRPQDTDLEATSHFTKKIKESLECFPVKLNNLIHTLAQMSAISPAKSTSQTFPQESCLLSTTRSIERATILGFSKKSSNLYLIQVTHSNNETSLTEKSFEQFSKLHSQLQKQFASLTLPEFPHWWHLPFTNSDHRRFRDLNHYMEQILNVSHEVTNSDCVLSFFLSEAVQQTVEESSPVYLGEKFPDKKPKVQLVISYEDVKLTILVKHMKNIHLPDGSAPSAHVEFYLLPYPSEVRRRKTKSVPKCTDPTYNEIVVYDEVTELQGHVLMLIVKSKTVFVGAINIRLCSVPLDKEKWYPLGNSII
Nature of the assay: Selectivity interaction (KinomeScan (DiscoverX)) EUB0000595a PIK3C2G. As to conditions: at 10 µM.

Sequence of Hepatocyte growth factor receptor (Homo sapiens), P08581 [Y1235D] (P08581 whole entry Y1235D): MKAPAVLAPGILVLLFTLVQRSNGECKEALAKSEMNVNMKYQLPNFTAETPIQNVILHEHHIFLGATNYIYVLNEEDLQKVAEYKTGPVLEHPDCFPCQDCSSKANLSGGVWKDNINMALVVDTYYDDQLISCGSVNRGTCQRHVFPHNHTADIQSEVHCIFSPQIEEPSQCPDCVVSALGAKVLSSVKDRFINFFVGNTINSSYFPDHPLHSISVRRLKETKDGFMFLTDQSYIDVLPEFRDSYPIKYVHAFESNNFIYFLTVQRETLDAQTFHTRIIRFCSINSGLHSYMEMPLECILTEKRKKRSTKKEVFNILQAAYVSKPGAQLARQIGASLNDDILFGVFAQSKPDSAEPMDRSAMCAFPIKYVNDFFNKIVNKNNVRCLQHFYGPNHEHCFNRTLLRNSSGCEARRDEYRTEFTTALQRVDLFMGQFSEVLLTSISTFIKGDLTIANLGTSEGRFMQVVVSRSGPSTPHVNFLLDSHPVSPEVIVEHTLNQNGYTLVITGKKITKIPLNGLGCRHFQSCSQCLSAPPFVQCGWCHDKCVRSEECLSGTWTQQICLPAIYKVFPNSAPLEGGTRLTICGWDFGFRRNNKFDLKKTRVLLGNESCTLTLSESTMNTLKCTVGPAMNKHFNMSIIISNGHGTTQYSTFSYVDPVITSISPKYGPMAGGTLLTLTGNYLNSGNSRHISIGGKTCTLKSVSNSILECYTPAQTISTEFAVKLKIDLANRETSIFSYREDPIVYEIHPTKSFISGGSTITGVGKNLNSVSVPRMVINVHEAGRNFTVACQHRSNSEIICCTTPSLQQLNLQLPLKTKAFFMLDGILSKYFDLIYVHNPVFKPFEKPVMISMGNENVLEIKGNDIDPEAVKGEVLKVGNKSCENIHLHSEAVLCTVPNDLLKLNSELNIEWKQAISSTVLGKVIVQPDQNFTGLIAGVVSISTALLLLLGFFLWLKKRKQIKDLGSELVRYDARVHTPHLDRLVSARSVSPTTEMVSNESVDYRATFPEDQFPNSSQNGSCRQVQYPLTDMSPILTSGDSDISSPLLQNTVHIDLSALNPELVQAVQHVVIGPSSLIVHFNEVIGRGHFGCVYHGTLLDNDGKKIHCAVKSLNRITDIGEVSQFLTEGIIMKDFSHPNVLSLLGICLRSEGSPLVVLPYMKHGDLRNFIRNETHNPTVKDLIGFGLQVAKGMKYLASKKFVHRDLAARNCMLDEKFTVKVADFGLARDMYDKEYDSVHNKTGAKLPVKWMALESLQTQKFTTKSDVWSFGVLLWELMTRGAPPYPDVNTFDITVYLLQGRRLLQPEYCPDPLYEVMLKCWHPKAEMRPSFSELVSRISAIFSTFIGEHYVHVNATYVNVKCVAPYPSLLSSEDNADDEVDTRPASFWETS
Sequence of Hepatocyte growth factor receptor (Homo sapiens), P08581 [M1250T] (P08581 whole entry M1250T): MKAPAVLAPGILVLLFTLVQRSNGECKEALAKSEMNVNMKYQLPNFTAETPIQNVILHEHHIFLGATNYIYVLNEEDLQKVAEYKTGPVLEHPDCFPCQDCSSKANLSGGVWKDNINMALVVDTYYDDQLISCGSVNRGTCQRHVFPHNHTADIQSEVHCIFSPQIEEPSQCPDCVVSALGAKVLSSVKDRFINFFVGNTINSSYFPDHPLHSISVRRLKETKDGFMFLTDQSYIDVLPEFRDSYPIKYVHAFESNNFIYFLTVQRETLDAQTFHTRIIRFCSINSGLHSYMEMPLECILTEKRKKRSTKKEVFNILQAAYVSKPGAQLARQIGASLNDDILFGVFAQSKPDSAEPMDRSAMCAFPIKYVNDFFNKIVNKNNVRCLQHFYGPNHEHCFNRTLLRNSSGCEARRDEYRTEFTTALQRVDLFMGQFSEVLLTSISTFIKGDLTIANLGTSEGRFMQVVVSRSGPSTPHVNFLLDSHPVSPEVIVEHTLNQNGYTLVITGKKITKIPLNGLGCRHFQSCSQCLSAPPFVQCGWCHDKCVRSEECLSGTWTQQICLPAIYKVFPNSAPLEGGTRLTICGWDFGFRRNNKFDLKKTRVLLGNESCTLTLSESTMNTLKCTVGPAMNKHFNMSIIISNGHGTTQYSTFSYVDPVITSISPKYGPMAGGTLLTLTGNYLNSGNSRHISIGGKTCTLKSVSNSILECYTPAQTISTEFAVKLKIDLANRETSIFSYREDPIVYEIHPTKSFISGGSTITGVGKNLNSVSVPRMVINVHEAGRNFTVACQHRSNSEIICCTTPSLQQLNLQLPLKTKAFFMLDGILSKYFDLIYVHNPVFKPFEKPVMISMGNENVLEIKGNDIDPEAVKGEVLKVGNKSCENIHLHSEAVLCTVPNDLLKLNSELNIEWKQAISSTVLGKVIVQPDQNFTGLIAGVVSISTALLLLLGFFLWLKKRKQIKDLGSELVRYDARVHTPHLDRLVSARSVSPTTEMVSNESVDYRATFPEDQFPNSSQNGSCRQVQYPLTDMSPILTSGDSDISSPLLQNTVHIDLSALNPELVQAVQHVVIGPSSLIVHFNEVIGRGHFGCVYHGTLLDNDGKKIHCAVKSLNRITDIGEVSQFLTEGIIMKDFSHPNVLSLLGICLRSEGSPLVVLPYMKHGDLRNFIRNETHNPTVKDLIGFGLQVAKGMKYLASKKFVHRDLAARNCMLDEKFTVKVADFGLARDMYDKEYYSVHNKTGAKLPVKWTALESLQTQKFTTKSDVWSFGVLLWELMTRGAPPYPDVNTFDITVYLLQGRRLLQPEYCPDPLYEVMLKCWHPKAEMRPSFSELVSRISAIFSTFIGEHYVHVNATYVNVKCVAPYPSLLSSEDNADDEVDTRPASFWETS

For `O=C(NOC[C@H](O)CO)c1ccc(F)c(F)c1Nc1ccc(I)cc1F`, the % of control in assay [1] stood at 92%; in assay [2], 100%.

`CC[C@@H]1[C@H](F)C(=O)N[C@@H]1COc1nccc2cc(C(N)=O)c(OC)cc12` [ZIMLOVISERTIB] showed a % of inhibition in assay [3] of 3.1%.

In turn, `COCC(=O)NC/C=C/c1ccc2ncnc(Nc3ccc(Oc4ccc(C)nc4)c(C)c3)c2c1` [CP-724714] yielded a % of control in assay [4] of 24%.
